Tests used:
Walker 256 rat sarcoma = settings: in vivo; cited from earlier work
L1210 mouse leukemia = settings: in vivo; cited from earlier work
nude mice = assay: in vivo; set-up: species or system nude mice (BALB/c nu/nu); settings: intravenous, continuous 5 days, maximum dose at which no animal was dead within 2 weeks, 20160 min
Experimental: (1) Measurement of maximum tolerated dose (MTD) of the spicamycin derivatives in nude mice
The spicamycin derivative was dissolved in dimethylsulfoxide (DMSO) and Cremophor EL® at the same volume as DMSO was added. Physiological saline was added so that the concentration of DMSO and Cremophor EL® was finally adjusted to 1%, respectively, and thus injection liquids of spicamycin derivative in a variety of concentrations were prepared. […] The maximum dose at which no animal was dead was defined as the MTD of the respective derivatives.

Acute toxicity (LD50) = settings: mouse, in vivo; intravenous, ICR mice (female, 6 weeks old), 14 days observation, Litchfield and Wilcoxon
Text: The LD50 was obtained from the mortalities at the respective dosage groups by the Litchfield and Wilcoxon's method.

[1] = system: human colon cancer (COL-1); type: in vivo, mouse
Experimental: (2) Method for measuring the antitumor effect on human colon cancer (COL-1)
COL-1, a human colon cancer, was transplanted subcutaneously into nude mice. When the tumor had grown to a volume of about 100 mm^3, the nude mice were divided into groups of 5 animals so that the average tumor volumes of respective groups were equalized. The respective spicamycin derivatives were administered to test groups at their MTDs, while physiological saline (solvent) containing 1% DMSO and 1% Cremophor EL® was administered to the control group. […] RV is expressed as RV =Vn/Vo where Vn is the tumor volume on day n and Vo is the initial tumor volume at the time treatment was commenced.

SMILES	antitumor activity against Walker 256 rat sarcoma (Walker 256 rat sarcoma)	antitumor activity against L1210 mouse leukemia (L1210 mouse leukemia)	Maximum tolerated dose (nude mice)	LD50 at 336 h (Acute toxicity (LD50))	Therapeutic index ([1]; /minimum effective dose (effective: TGIR≥50))	TGIR (tumor growth inhibition rate, maximum) ([1]; in vivo, sc)	minTx (relative tumor volume when reduced to the minimum) ([1]; in vivo, sc)
CC(C)CCCCCCCCCCCCC(=O)NCC(=O)NC1C(O)C(O)C(Nc2ncnc3nc[nH]c23)OC1C(O)CO (stereo not shown) [septacidin]	no antitumor activity	no antitumor activity	–	–	–	–	–
CCCCCCCCC/C=C/C=C/C(=O)NCC(=O)N[C@@H]1[C@@H](O)[C@@H](O)[C@@H](Nc2ncnc3[nH]cnc23)O[C@H]1C(O)CO (stereo partly drawn) [SPK241, 6-[4'-N-(N'-trans,trans-2,4-tetradecadienoylglycyl)spicaminyl-amino]purine]	–	–	6 mg/kg/day	110 mg/kg	16	97	0.14
